Active and inactive are the calls of the source. How the calls were made is not given here.

In the data set the test system is rodent carcinogenicity bioassays, tumor incidence. The experiment in a line: CCRIS carcinogenicity studies. Conditions: Dose: 0, Dose: 0. The gist of the method: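 Archive of carcinogenicity, mutagenicity, tumor promotion and tumor inhibition results drawn from journals, NCI reports and other sources, expert-reviewed; covers 1985-2011 and is no longer updated.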

With `OCC(CO)(CBr)CBr`, the carcinogen call was “active; positive” (Species: GUPPIE, Strain/Sex: MALE, Route: AQUARIUM WATER, 24, 60, 150 MG/L FOR 9 MO THEN IN CLEAN WATER FOR 7 MO (STUDY DURATION: 16 MO), 24, 60, 150 MG/L FOR 9 MO THEN IN CLEAN WATER FOR 7 MO (STUDY DURATION: 16 MO), Tumor Site: Type of Lesion: LIVER: HEPATOCELLULAR ADENOMA OR CARCINOMA); “active; positive; due to mortality, exposure in 150 mg/l group terminated on day 443” (Species: GUPPIE, Strain/Sex: MALE, Route: AQUARIUM WATER, 24, 60, 150 MG/L FOR 16 MO (STUDY DURATION: 16 MO), 24, 60, 150 MG/L FOR 16 MO (STUDY DURATION: 16 MO), Tumor Site: Type of Lesion: LIVER: HEPATOCELLULAR ADENOMA OR CARCINOMA); “inactive; negative” (Species: MEDAKA, Strain/Sex: FEMALE, Route: AQUARIUM WATER, 24, 60, 150 MG/L FOR 14 MO (STUDY DURATION: 14 MO), 24, 60, 150 MG/L FOR 14 MO (STUDY DURATION: 14 MO)); “active; positive” (Species: MEDAKA, Strain/Sex: MALE, Route: AQUARIUM WATER, 24, 60, 150 MG/L FOR 9 MO THEN IN CLEAN WATER FOR 5 MO (STUDY DURATION: 14 MO), 24, 60, 150 MG/L FOR 9 MO THEN IN CLEAN WATER FOR 5 MO (STUDY DURATION: 14 MO), Tumor Site: Type of Lesion: LIVER: HEPATOCELLULAR ADENOMA OR CARCINOMA); “active; positive” (Species: MEDAKA, Strain/Sex: MALE, Route: AQUARIUM WATER, 24, 60, 150 MG/L FOR 14 MO (STUDY DURATION: 14 MO), 24, 60, 150 MG/L FOR 14 MO (STUDY DURATION: 14 MO), Tumor Site: Type of Lesion: LIVER: HEPATOCELLULAR ADENOMA OR CARCINOMA); “active; positive” (Species: MOUSE, Strain/Sex: B6C3F1/FEMALE, Route: ORAL, 312, 625, 1250 PPM IN DIET FOR 104-105 WK (STUDY DURATION: 106 WK), 312, 625, 1250 PPM IN DIET FOR 104-105 WK (STUDY DURATION: 106 WK), Tumor Site: Type of Lesion: HARDERIAN GLAND: ADENOMA, CARCINOMA, LUNG: ALVEOLAR/BRONCHIOLAR ADENOMA OR CARCINOMA, SKIN(SUBCUTANEOUS TISSUE): SARCOMA, Tumor Site: Type of Lesion: HARDERIAN GLAND: ADENOMA, CARCINOMA, LUNG: ALVEOLAR/BRONCHIOLAR ADENOMA OR CARCINOMA, SKIN(SUBCUTANEOUS TISSUE): SARCOMA). For the same molecule, the carcinogen call runs as follows: (Species: MOUSE, Strain/Sex: B63CF1/MALE, Route: ORAL, 312, 625, 1250 PPM IN DIET FOR 104-105 WK (STUDY DURATION: 106 WK), 312, 625, 1250 PPM IN DIET FOR 104-105 WK (STUDY DURATION: 106 WK), Tumor Site: Type of Lesion: HARDERIAN GLAND: ADENOMA, ADENOMA OR CARCINOMA, LUNG: ALVEOLAR/BRONCHIOLAR ADENOMA, ALVEOLAR/BRONCHIOLAR CARCINOMA) “active; positive”; (Species: RAT, Strain/Sex: F344/FEMALE, Route: ORAL, 2500, 5000, 10000 PPM IN DIET FOR 104-105 WK (STUDY DURATION: 105 WK), 2500, 5000, 10000 PPM IN DIET FOR 104-105 WK (STUDY DURATION: 105 WK), Tumor Site: Type of Lesion: ESOPHAGUS: SQUAMOUS CELL PAPILLOMA, MAMMARY GLAND: FIBROADENOMA, ORAL CAVITY: SQUAMOUS CELL PAPILLOMA OR SQUAMOUS CELL C, Tumor Site: Type of Lesion: ESOPHAGUS: SQUAMOUS CELL PAPILLOMA, MAMMARY GLAND: FIBROADENOMA, ORAL CAVITY: SQUAMOUS CELL PAPILLOMA OR SQUAMOUS CELL C) “active; positive”; (Species: RAT, Strain/Sex: F344/MALE, Route: ORAL, 2500, 5000, 10000 PPM IN DIET FOR 104-105 WK (STUDY DURATION: 105 WK), 2500, 5000, 10000 PPM IN DIET FOR 104-105 WK (STUDY DURATION: 105 WK), Tumor Site: Type of Lesion: ESOPHAGUS: SQUAMOUS CELL PAPILLOMA, LARGE INTESTINE: ADENOMATOUS POLYP, MAMMARY GLAND: FIBROADENOMA, FIBROADENOMA OR ADE, Tumor Site: Type of Lesion: ESOPHAGUS: SQUAMOUS CELL PAPILLOMA, LARGE INTESTINE: ADENOMATOUS POLYP, MAMMARY GLAND: FIBROADENOMA, FIBROADENOMA OR ADE) “active; positive”; (Species: RAT, Strain/Sex: F344/MALE, Route: ORAL, 20000 PPM IN DIET FOR 3 MO FOLLOWED BY NORMAL DIET FOR 21 MO (STUDY DURATION: 2 YR), Tumor Site: Type of Lesion: LARGE INTESTINE: ADENOMATOUS POLYP, LUNG: ALVEOLAR/BRONCHIOLAR ADENOMA OR CARCINOMA, MAMMARY GLAND: FIBROADENOMA, ORAL C, Tumor Site: Type of Lesion: LARGE INTESTINE: ADENOMATOUS POLYP, LUNG: ALVEOLAR/BRONCHIOLAR ADENOMA OR CARCINOMA, MAMMARY GLAND: FIBROADENOMA, ORAL C) “active; positive”.

Turning to `Cn1c(=O)c2c(ncn2C)n(C)c1=O`, the carcinogen call by setting is: (Species: RAT, Strain/Sex: SPRAGUE-DAWLEY/FEMALE, Route: ORAL, 200, 430, 930, 2000 MG/L IN DRINKING WATER FOR 24 MO (STUDY DURATION: 2 YR), 200, 430, 930, 2000 MG/L IN DRINKING WATER FOR 24 MO (STUDY DURATION: 2 YR)) “inactive; negative”; (Species: RAT, Strain/Sex: SPRAGUE-DAWLEY/MALE, Route: ORAL, 200, 430, 930, 2000 MG/L IN DRINKING WATER FOR 24 MO (STUDY DURATION: 2 YR), 200, 430, 930, 2000 MG/L IN DRINKING WATER FOR 24 MO (STUDY DURATION: 2 YR)) “inactive; negative”; (Species: RAT, Strain/Sex: WISTAR/MALE,FEMALE, Route: ORAL, 0.1, 0.2% SOLN. IN DRINKING WATER FOR 78 WK, 0.1, 0.2% SOLN. IN DRINKING WATER FOR 78 WK) “inactive; negative”.

The values are drawn from PubChem BioAssay AID1259411 (Chemical Carcinogenesis Research Information System (CCRIS), 2018).
